Common to all, as to assay: -log10 GI50 (growth inhibition 50%) (-log10(M)); higher = more potent growth inhibition
One experiment deals with HCC38. In a few lines: (§1)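 Breast cancer cell lines were exposed to each compound for 72 hours at nine doses in 1:5 serial dilution, in triplicate, with a luminescence read-out against a time-zero plate. A Gompertz curve was fitted to the dose-response data by nonlinear least squares. The value is minus log10 of GI50, the molar concentration giving the set level of growth inhibition. Values equal to the top dose carry a < qualifier.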

The subject of a further experiment is MCF12A. In a few lines: as §1
In the next experiment the test system is UACC812. An outline of the steps: as §1
The subject of another experiment is HCC1419. An outline of the steps:
as §1

Another experiment relates to SUM52PE. In a few lines:
as §1

The next experiment concerns AU565. In a few lines: as §1
The subject of another experiment is SUM229PE. In a few lines: as §1
The subject of the next experiment is HCC70. An outline of the steps:
as §1

Another experiment concerns MDAMB453. In a few lines: as §1
A further experiment deals with MDAMB231. In a few lines:
as §1

A further experiment relates to CAMA1. In a few lines: as §1
A further experiment concerns 184B5. In a few lines: as §1
The subject of a further experiment is MDAMB157. An outline of the steps:
as §1

The next experiment deals with SUM185PE. An outline of the steps: as §1
The subject of a further experiment is 184A1. An outline of the steps:
as §1

A further experiment deals with SKBR3. In a few lines:
as §1

Another experiment concerns ZR751. An outline of the steps: as §1
The next experiment has as its system SUM159PT. An outline of the steps:
as §1

The next experiment has as its system T47D_KBluc. In a few lines:
as §1

The subject of the next experiment is BT20. In a few lines: as §1

Each structure is given as a SMILES string. Some results are limits rather than exact numbers.

Turning to `CC(/C=C/C(=O)NO)=C\[C@@H](C)C(=O)c1ccc(N(C)C)cc1` [Trichostatin A], the “-log10 GI50” value in the experiment with HCC38 was found to be 5.22; in the experiment with MCF12A it was 4.71; in the experiment with UACC812, 5.05; with HCC1419, 4.9; in the experiment with SUM52PE, 5.58; in the experiment with AU565, 5.44. The “-log10 GI50” value was 4.83 in the experiment with SUM229PE; 4.84 in the experiment on HCC70; 5.22 with MDAMB453; 5.26 in the experiment on MDAMB231; 5.57 with CAMA1; 4.34 with 184B5. The “-log10 GI50” value in the experiment with MDAMB157 came out at 4.68; with SUM185PE, 4.76; in the experiment with 184A1, 4.73; in the experiment with SKBR3 it was 5.21; in the experiment on ZR751, 4.74; in the experiment on SUM159PT it was 5.23. Besides, the “-log10 GI50” value in the experiment with T47D_KBluc was 5.4; in the experiment on BT20, 4.68.
As for `Cc1cc(Nc2cc(N3CCN(C)CC3)nc(Sc3ccc(NC(=O)C4CC4)cc3)n2)n[nH]1` [VX-680], the “-log10 GI50” value is 6.74 with HCC38; 6.33 in the experiment with MCF12A; 4.79 in the experiment with UACC812; 4.81 in the experiment on HCC1419; 6.42 with SUM52PE; 5.66 in the experiment on AU565. The “-log10 GI50” value worked out at 6.47 in the experiment on SUM229PE; 5.6 in the experiment on HCC70; 5.03 in the experiment on MDAMB453; 4.95 in the experiment with MDAMB231; 4.53 with CAMA1; 5.74 in the experiment with 184B5. Besides, the “-log10 GI50” value was 5.43 in the experiment with MDAMB157; 5.62 in the experiment on SUM185PE; 5.64 in the experiment on 184A1; under 4.48 in the experiment on SKBR3; 5.29 with ZR751; 6.47 in the experiment on SUM159PT. Moreover, the “-log10 GI50” value stood at 4.49 in the experiment with T47D_KBluc and 5.34 in the experiment with BT20.
Take `CCCC(CCC)C(=O)O` [Valproic acid]: the “-log10 GI50” value in the experiment on HCC38 was 3.05; with MCF12A, 2.74; in the experiment with UACC812, 2.59; in the experiment with HCC1419 it was 2.93; with SUM52PE, 2.91; in the experiment with AU565 it was 2.85. The “-log10 GI50” value in the experiment on SUM229PE came out at 2.65; with HCC70, 2.99; in the experiment with MDAMB453, 3.15; in the experiment on MDAMB231, 2.16; with CAMA1, 2.79; in the experiment on 184B5 it was 3.07. Also, the “-log10 GI50” value with MDAMB157 was found to be 2.68; with SUM185PE, 2.84; in the experiment on 184A1 it was 3; in the experiment on SKBR3, 3.04; in the experiment with ZR751, 2.78; in the experiment on SUM159PT, 2.91. For the same compound, the “-log10 GI50” value in the experiment on T47D_KBluc is 2.76; in the experiment on BT20 it was 2.44.
On to `O=C(CCCCCCC(=O)Nc1ccccc1)NO` [Vorinostat], for which the “-log10 GI50” value in the experiment with HCC38 was 4.47; in the experiment with MCF12A it was 3.77; in the experiment with UACC812, 4.37; in the experiment with HCC1419 it was 4.27; with SUM52PE, 4.73; in the experiment with AU565, 4.08. Further, the “-log10 GI50” value was 4.02 in the experiment with SUM229PE; 4.46 with HCC70; 4.49 in the experiment on MDAMB453; 4.11 in the experiment with MDAMB231; 4.13 in the experiment with CAMA1; 3.84 in the experiment with 184B5. For the same compound, the “-log10 GI50” value was 4.01 in the experiment with MDAMB157; 4.42 in the experiment on SUM185PE; 3.87 in the experiment on 184A1; 4.32 in the experiment with SKBR3; 3.77 in the experiment with ZR751; 3.92 in the experiment with SUM159PT. For the same compound, the “-log10 GI50” value in the experiment with T47D_KBluc amounted to 3.99; with BT20, 3.74.

The values above are taken from the supplement of paper PMC3937590.
